In one data set the test system is glioblastoma cells (U87). Kind of data set: IC50 for inhibiting cell growth in glioblastoma cells (U87). Type of data set: cell-based, human. To be noted: inhibition of cell growth. The protocol:
(§1) Cell Culture. The rhabdomyosarcoma cell lines RH30, RH18, and RD were cultured in RPMI-1640 medium with 10% FBS. RH18 was a gift from Dr. P. J. Houghton. Glioblastoma cell line U87 cells were cultured in Minimum Essential Medium Eagle (MEM), supplemented with 1 mM sodium pyruvate, 1% nonessential amino acids, 0.15% sodium bicarbonate, and 10% fetal bovine serum (FBS); T98G cells were cultured in MEM with 10% FBS; A172 cells were cultured in Dulbecco's modified Eagle's medium (DMEM) with 4.5 g/L glucose, and supplemented with 10% FBS; U251 cells were cultured in Roswell Park Memorial Institute medium with 5% FBS. Immortalized human astrocytes (a kind gift from Dr. Russ Pieper, University of California San Francisco) were grown in DMEM/F12 with 4.5 g/L of glucose, supplemented with 10% FBS. All cells were grown at 37° C. in 5% CO2-[…]. All cell lines unless specified were originally obtained from ATCC. They were not further authenticated.
(§2) In this example, samples of glioblastoma cells (U87) and astrocyte cells (non-cancer control) were exposed various disclosed compounds to determine the effectiveness of the compounds for inhibiting cell growth.

Data set [1] has as its system astrocyte cells (non-cancer control). Kind of data set: IC50 for inhibiting cell growth in astrocyte cells (non-cancer control). The data set is classed as cell-based, human. To be noted: inhibition of cell growth. As to the method: as §1, §2
Data set [2] concerns GBM lines (U87, A172, U251, and T98G). Kind of data set: Cellular assays using GBM cell lines and immortalized astrocytes. The data set is classed as cell-based, human. The conditions noted are these: four GBM lines (U87, A172, U251, T98G) versus astrocytes. As to the method: as §1
To investigate whether AVIL is a viable drug target, a platform of small-molecule microarray was utilized (Bradner et al., 2006a; Bradner et al., 2006b) in order to identify compounds that interact with the AVIL protein. 50,000 small molecules were screened with recombinant advillin protein, including commercially available compounds, products of diversity-oriented synthesis, and known bioactive compounds. From these compounds, 82 advillin-interacting compounds were identified (FIG. 7A). […] Pubchem ID for the three compounds are as follows: Compound A is CID 56750508, Compound B is CID 56890068, and Compound C is CID 70768068.

The target of data set [3] is T1, advillin recombinant protein (AVIL) (Homo sapiens, UniProt O75366).
T1 construct: MBP (N, cleaved yes); made in house; host or cells: E. coli BL21 (DE3)
T1 sequence (O75366 1-819): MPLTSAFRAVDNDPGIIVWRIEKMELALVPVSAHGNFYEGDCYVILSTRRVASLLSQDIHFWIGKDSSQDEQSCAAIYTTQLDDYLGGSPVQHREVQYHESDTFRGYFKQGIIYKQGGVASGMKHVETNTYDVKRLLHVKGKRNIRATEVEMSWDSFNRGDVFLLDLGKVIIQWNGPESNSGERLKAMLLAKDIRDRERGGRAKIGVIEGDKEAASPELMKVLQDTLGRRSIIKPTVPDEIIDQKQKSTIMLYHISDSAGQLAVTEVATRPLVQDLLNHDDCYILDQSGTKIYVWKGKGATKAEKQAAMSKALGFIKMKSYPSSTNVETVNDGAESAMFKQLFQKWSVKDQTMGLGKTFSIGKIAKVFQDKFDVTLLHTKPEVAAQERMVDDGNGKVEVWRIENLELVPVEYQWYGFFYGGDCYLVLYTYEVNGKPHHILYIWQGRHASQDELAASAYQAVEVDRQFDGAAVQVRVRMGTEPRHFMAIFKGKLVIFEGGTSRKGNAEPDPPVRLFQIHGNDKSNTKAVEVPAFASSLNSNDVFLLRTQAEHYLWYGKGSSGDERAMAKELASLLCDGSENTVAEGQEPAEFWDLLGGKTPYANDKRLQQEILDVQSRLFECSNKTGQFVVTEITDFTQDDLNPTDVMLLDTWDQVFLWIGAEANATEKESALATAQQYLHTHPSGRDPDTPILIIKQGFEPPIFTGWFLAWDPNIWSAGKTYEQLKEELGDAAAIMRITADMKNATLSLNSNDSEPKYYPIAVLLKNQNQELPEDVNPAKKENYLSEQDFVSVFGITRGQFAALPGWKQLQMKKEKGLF
Kind of data set: Thermal shift assay. The conditions noted are these: for binding with advillin recombinant protein: thermal shift assay. Type of data set: binding. The protocol:
Protein purification. The sequence for human Advillin (AVIL) was cloned into the pMAL-c4x vector. The corresponding plasmid was transformed into BL21 (DE3) cells. Expression of MBP-AVIL was induced at OD600≈0.7 by the addition of 1 mM IPTG, and continued for 18 hrs at 23° C. Harvested cells were subsequently resuspended in 20 mM Tris-HCl pH 7.4, 200 mM NaCl, 1 mM EDTA, 1 mM DTT (Wash Buffer), supplemented with Complete Protease Inhibitor Cocktail (Roche), lysed in Emulsiflex C3 (AVESTIN) and cell debris was removed by centrifugation. MBP-AVIL was immobilized on Amylose Resin (New England BioLabs) followed by extensive washing (>50 column volumes) with Wash Buffer. Protein was eluted with Wash Buffer supplemented with 10 mM Maltose. After overnight incubation with TEV protease, MBP-tag was removed by size exclusion on HiLoad 16/600 Superdex 200 pg columns, previously equilibrated to 20 mM HEPES, pH 7.4, 50 mM NaCl, 1 mM DTT (Protein Buffer). Recombinant AVIL was flash-frozen in liquid nitrogen and stored in −80° C.
Thermal shift assay. SYPRO Orange (ThermoFisher Scientific) was added to 0.5 mg/ml AVIL (in Protein Buffer) in a 1:4500 ratio. 2.5 uL increasing concentrations of candidate compounds were added to 22.5 μL of AVIL/SYPRO Orange mixture on a 96 well plate (10% final concentration of DMSO). Protein unfolding was measured in a CFX96 qPCR (Bio-Rad) instrument with 0.2° C./15 sec steps, over the range of 20-90° C.

In a further data set the test system is U87 cells. Nature of the data set: Microarray analysis of U87 cells treated with compounds (gene ontology, GSEA). The data set is classed as cell-based, human. The conditions noted are these: gene set downregulated by siAVIL. The protocol:
(§3) The effect of the three compounds on LIN28B expression was tested. […] To test whether the compounds can trigger transcriptome response similar to siAVIL, a microarray analysis of the U87 cells treated with these compounds was performed. Strikingly, cells treated with all three compounds had similar transcriptome profiles when compared to that of the siAVIL transfected cells, by both gene ontology and Gene Set Enrichment analyses (example in FIGS. 7F and 7G).

For a further data set, the system named is U87 xenograft. Kind of data set: U87 xenograft model, intra-tumor injection. The data set is classed as in vivo, NIH-III Nude mice. As to the method: Astrocytes stably expressing AVIL or an empty vector were injected subcutaneously into the flanks of NIH-III Nude mice. Around 2 million cells were used per injection. The animals were monitored twice a week. For drug treatment, 1.5 million U87 cells were injected subcutaneously into the flanks of NIH-III Nude mice. Compound 56750508 was dissolved in 50% DMSO, 15% ethanol, and 35% water. After tumors became visible (around 2 weeks), 50 ul drug solution or solvent was injected intra-tumorly. Three injections were performed with two day intervals.
as §3

For data set [4], the system named is RH30 rhabdomyosarcoma cells. Nature of the data set: Cell survival / crystal violet staining of RH30 cells. Type of data set: cell-based. To be noted: 20 μM. As to the method: as §1
(§4) RH30 and RD are rhabdomyosarcoma cells. MSC is mesenchymal stem cells, as a non-cancer control.

For data set [5], the system named is RD rhabdomyosarcoma cells. Kind of data set: Cell survival / crystal violet staining of RD cells. The data set is classed as cell-based. The conditions noted are these: 20 μM. The protocol: as §1, §4
For data set [6], the system named is MSC mesenchymal stem cells (non-cancer control). Nature of the data set: Cell survival / crystal violet staining of MSC cells. The data set is classed as cell-based. The conditions noted are these: 20 μM.
Description: as §4

[7] abbreviates: three intra-tumor injections with two day intervals, versus solvent control, at harvest.

As for `Nc1nccc(N2CCCC(CO)(CCCc3ccccc3)C2)n1` (stereo not shown) [Compound A], half-maximal inhibition in the data set on glioblastoma cells (U87) (Homo sapiens) (IC50) required 9 µM. The compound further came in with an IC50 in data set [1] (Homo sapiens, Astrocyte) of 55 µM. In addition, the “IC50 values in GBM lines compared to astrocytes” value in [2] was “significantly different IC50 values”. The “melting temperature (Tm) shift of AVIL protein” value in [3] (increasing concentrations of compound) is “dose-dependent melting temperature (Tm) shift”. The “binding with advillin recombinant protein” value (“binding” below) in [3] was “confirmed binding”. Further, the GSEA enrichment score result in the data set on U87 cells is given as “highest GSEA enrichment score”. Further, the “side effect in the animals” value with U87 xenograft (three injections) is on record as “did not observe any obvious side effect”. In the data set with U87 xenograft (setting [7]), the tumor volume result is “significantly smaller” and the tumor weight entry is recorded as “significantly smaller”. Moreover, in [4], the “effect on RH30 cells” value is “most if not all of the RH30 and RD cells were wiped out”. Also, the “effect on RD cells” value in data set [5] is “most if not all of the RH30 and RD cells were wiped out”. In addition, in [6], the “effect on MSC cells” value is “no significant effect”.

Take `c1ccc(CCC2CCN(CC3[C@H]4CNC[C@@H]34)CC2)cc1` (stereo partly shown) [Compound B]: in data set [2], the “IC50 values in GBM lines compared to astrocytes” value is “significantly different IC50 values”. Also, the “binding” value in [3] was “confirmed binding”.

As for `CN(Cc1ccc(Oc2ccccc2)cc1)C(=O)C1C[C@@H](O)CN1` (stereo partly shown) [Compound C], in data set [2], the “IC50 values in GBM lines compared to astrocytes” value is given as “significantly different IC50 values”. Further, the “binding” value in data set [3] is “confirmed binding”.

On to `Cc1nccc(N2CCCC(CO)(CCCc3ccccc3)C2)n1` (stereo not shown) [Compound I], for which the IC50 was found to be 19 µM in the data set with glioblastoma cells (U87) (Homo sapiens) and 80 µM in data set [1] (Homo sapiens, Astrocyte).

With `Nc1cc(N2CCC(CO)(CCCc3ccccc3)CC2)nc(N)n1` [D], the IC50 was found to be 2.5 µM in the data set on glioblastoma cells (U87) (Homo sapiens) and 51 µM in data set [1] (Homo sapiens, Astrocyte).

Turning to `Nc1nccc(N2CCCC(CCc3ccccc3)C2)n1` (stereo not shown) [E], the IC50 was found to be 1 µM in the data set on glioblastoma cells (U87) (Homo sapiens) and 30 µM in data set [1] (Homo sapiens, Astrocyte).

For the compound `Nc1nccc(N2CCC(CO)(CCCc3ccccc3)CC2)n1` [F], the IC50 in the data set with glioblastoma cells (U87) (Homo sapiens) amounted to 4 µM; in [1] (Homo sapiens, Astrocyte) it was 28 µM.

Consider `Nc1cc(N2CCCC(CO)(CCCc3ccccc3)C2)nc(N)n1` (stereo not shown) [G], for which the IC50 with glioblastoma cells (U87) (Homo sapiens) was 10 µM; in data set [1] (Homo sapiens, Astrocyte) it was greater than 80 µM.

With `Nc1cc(N2CCCC(CO)(CCCc3ccccc3)C2)nc(N)n1` (stereo not shown) [H], the IC50 in the data set on glioblastoma cells (U87) came out at 8 µM; in [1], 59 µM.

For `Nc1cc(N2CCCC(CO)(CCCc3ccccc3)C2)ncn1` (stereo not shown) [J], the IC50 with glioblastoma cells (U87) (Homo sapiens) is 20 µM; in data set [1] (Homo sapiens, Astrocyte), greater than 80 µM.

Consider `Nc1cc(N2CCCC(CCCc3ccccc3)(C(=O)O)C2)nc(N)n1` (stereo not shown) [K], for which the IC50 in the data set on glioblastoma cells (U87) (Homo sapiens) was 39 µM; in [1] (Homo sapiens, Astrocyte) it was 34 µM.

`CCCC1(CO)CCCN(c2cc(N3CCN(C)CC3)nc(N)n2)C1` (stereo not shown) [L]: the IC50 with glioblastoma cells (U87) (Homo sapiens) was greater than 80 µM; in data set [1] (Homo sapiens, Astrocyte), greater than 80 µM.

The record behind these values is patent US11957682B2, “Compounds and methods for regulating, limiting, or inhibiting AVIL expression” (University of Virginia Patent Foundation, priority 2017, dated 2024).
